Assay: xn = mol fraction of the nth substance listed

CC(C)(C)O + CO
303.2 K, 101.33 kPa
Settings	viscosity [mPa·s]
x2 = 0.05	3.285
x2 = 0.1	3.166
x2 = 0.15	3
x2 = 0.2	2.806
x2 = 0.3	2.4
x2 = 0.4	2.016
x2 = 0.5	1.649
x2 = 0.6	1.36
x2 = 0.7	1.069
x2 = 0.8	0.842
x2 = 0.85	0.746
x2 = 0.9	0.658
x2 = 0.95	0.574

COCCOCCOCCOC + CO
viscosity [mPa·s], 100 kPa
Settings	293.15 K	298.15 K	303.15 K
x2 = 0.0543	2.129	1.922	1.733
x2 = 0.0988	2.083	1.882	1.696
x2 = 0.1978	1.982	1.795	1.621
x2 = 0.3013	1.864	1.689	1.527
x2 = 0.3994	1.737	1.58	1.434
x2 = 0.5183	1.57	1.433	1.302
x2 = 0.5962	1.443	1.321	1.203
x2 = 0.6983	1.26	1.158	1.058
x2 = 0.7969	1.055	0.975	0.894
x2 = 0.8472	0.944	0.875	0.804
x2 = 0.8993	0.825	0.767	0.705
x2 = 0.9489	0.711	0.662	0.608

C[NH+](CCO)CCO.O=C[O-] + CO
viscosity [mPa·s], 101 kPa
Settings	293.15 K	303.15 K	313.15 K	323.15 K
x1 = 0.0524	26.47	15.39	6.822	4.667
x1 = 0.1066	52.08	24.58	13.12	8.99
x1 = 0.2075	103.1	49.04	26.16	17.87
x1 = 0.3137	158.6	77.7	40.82	27.89
x1 = 0.4061	207.6	102	54.12	37.05
x1 = 0.5016	259.6	126.3	68.64	47.08
x1 = 0.6339	339	163	91.65	62.82
x1 = 0.7031	388.3	187.2	106.1	72.5
x1 = 0.8195	494.6	243.3	136.4	92.04
x1 = 0.9184	618.8	307.1	167.4	111.1
x1 = 0.962	667.2	330.3	179.6	118.9

Nc1ccccc1 + CO
298.15 K, 101 kPa
Settings	viscosity [mPa·s]
x1 = 0.0473	0.5608
x1 = 0.1001	0.5768
x1 = 0.1604	0.6103
x1 = 0.2292	0.6583
x1 = 0.3082	0.7229
x1 = 0.4007	0.8404
x1 = 0.5096	1.023
x1 = 0.6406	1.322
x1 = 0.8005	1.867

COCCOCCOCCOC + COC(=O)OC
298.15 K, 101.33 kPa
Settings	viscosity [mPa·s]
x1 = 0.0029	0.592
x1 = 0.0133	0.606
x1 = 0.0209	0.618
x1 = 0.0436	0.651
x1 = 0.0642	0.679
x1 = 0.0947	0.721
x1 = 0.1187	0.753
x1 = 0.1459	0.792
x1 = 0.1856	0.846
x1 = 0.2147	0.888
x1 = 0.2593	0.953
x1 = 0.3084	1.026
x1 = 0.3099	1.025
x1 = 0.3614	1.099
x1 = 0.4011	1.157
x1 = 0.4433	1.221
x1 = 0.5005	1.303
x1 = 0.5659	1.396
x1 = 0.6004	1.449
x1 = 0.6515	1.524
x1 = 0.6923	1.585
x1 = 0.7622	1.673
x1 = 0.815	1.74
x1 = 0.8324	1.76
x1 = 0.9158	1.86
x1 = 0.9541	1.899

CC(C)(C)O + COC(C)(C)C
101.33 kPa
Settings	viscosity [mPa·s]
303.15 K, x2 = 0.0443	2.726
303.15 K, x2 = 0.0877	2.236
303.15 K, x2 = 0.1262	1.894
303.15 K, x2 = 0.1702	1.587
303.15 K, x2 = 0.2519	1.192
303.15 K, x2 = 0.2645	1.146
303.15 K, x2 = 0.3232	0.9699
303.15 K, x2 = 0.3619	0.8794
303.15 K, x2 = 0.4504	0.7203
303.15 K, x2 = 0.5434	0.5955
303.15 K, x2 = 0.5686	0.5668
303.15 K, x2 = 0.6631	0.4759
303.15 K, x2 = 0.7872	0.3997
303.15 K, x2 = 0.8887	0.3669
303.15 K, x2 = 0.9442	0.3487
313.15 K, x2 = 0.048	1.742
313.15 K, x2 = 0.0499	1.73
313.15 K, x2 = 0.0796	1.556
313.15 K, x2 = 0.092	1.491
313.15 K, x2 = 0.1717	1.149
313.15 K, x2 = 0.2531	0.9105
313.15 K, x2 = 0.267	0.878
313.15 K, x2 = 0.3697	0.6901
313.15 K, x2 = 0.4552	0.5827
313.15 K, x2 = 0.5678	0.4803
313.15 K, x2 = 0.6723	0.4109
313.15 K, x2 = 0.7688	0.3634
313.15 K, x2 = 0.8802	0.3241
313.15 K, x2 = 0.9456	0.305

COCCOCCOCCOC + COC(C)=O
viscosity [mPa·s], 101.3 kPa
Settings	298.15 K	308.15 K	318.15 K
x1 = 0.022	0.398	0.352	0.33
x1 = 0.0473	0.424	0.378	0.352
x1 = 0.0717	0.455	0.404	0.373
x1 = 0.1255	0.527	0.465	0.425
x1 = 0.1838	0.61	0.534	0.478
x1 = 0.2145	0.649	0.561	0.512
x1 = 0.236	0.676	0.58	0.528
x1 = 0.2557	0.709	0.616	0.549
x1 = 0.3143	0.802	0.687	0.611
x1 = 0.4027	0.943	0.802	0.699
x1 = 0.4806	1.07	0.905	0.783
x1 = 0.5743	1.234	1.031	0.883
x1 = 0.6289	1.326	1.1	0.942
x1 = 0.6511	1.367	1.13	0.964
x1 = 0.7138	1.474	1.215	1.031
x1 = 0.7667	1.566	1.286	1.086
x1 = 0.7792	1.593	1.308	1.1
x1 = 0.8702	1.743	1.426	1.195
x1 = 0.9014	1.805	1.472	1.225
x1 = 0.9571	1.891	1.548	1.278
x2 = 0.0137	1.936	1.584	1.306

Nc1ccccc1 + COCCO
303.15 K, 101 kPa
Settings	viscosity [mPa·s]
x1 = 0.0881	2.156
x1 = 0.1786	2.351
x1 = 0.2716	2.555
x1 = 0.3671	2.757
x1 = 0.4652	2.955
x1 = 0.5661	3.129
x1 = 0.67	3.284
x1 = 0.7768	3.437
x1 = 0.8867	3.591

ClCc1ccccc1 + COCCOC
298.15 K, 101 kPa
Settings	viscosity [mPa·s]
x2 = 0.135	1.176
x2 = 0.2599	1.026
x2 = 0.3758	0.908
x2 = 0.4836	0.807
x2 = 0.5841	0.716
x2 = 0.6781	0.635
x2 = 0.7662	0.564
x2 = 0.8489	0.506
x2 = 0.9267	0.453

ClCc1ccccc1 + COc1ccccc1
303.15 K, 101 kPa
Settings	viscosity [mPa·s]
x2 = 0.1045	1.245
x2 = 0.1911	1.362
x2 = 0.304	1.438
x2 = 0.4094	1.466
x2 = 0.5182	1.45
x2 = 0.6162	1.394
x2 = 0.7196	1.3
x2 = 0.8053	1.192
x2 = 0.9137	1.061

CC(C)(C)O + CS(C)=O
viscosity [mPa·s], 101.3 kPa
Settings	x2 = 0.095	x2 = 0.1916	x2 = 0.289	x2 = 0.3874	x2 = 0.5132	x2 = 0.5873	x2 = 0.6888	x2 = 0.7916	x2 = 0.8951
298.15 K	3.564	2.968	2.53	2.269	2.07	2.005	1.917	1.902	1.971
303.15 K	2.644	2.111	1.808	1.608	1.479	1.459	1.531	1.568	1.719

CNC + CS(C)=O
303.15 K, 101 kPa
Settings	viscosity [mPa·s]
x2 = 0.061	2.067
x2 = 0.1207	2.133
x2 = 0.2361	2.207
x2 = 0.4518	2.373
x2 = 0.6496	2.207
x2 = 0.8318	1.939

Nc1ccccc1 + CS(C)=O
viscosity [mPa·s], 101 kPa
Settings	298.15 K	302.4 K	308.15 K	318.15 K
x2 = 0.0786	–	5.806	–	–
x2 = 0.1	3.83	–	2.841	2.194
x2 = 0.2	3.94	–	2.925	2.259
x2 = 0.2281	–	3.998	–	–
x2 = 0.3	3.99	–	2.98	2.3
x2 = 0.4	3.938	–	2.958	2.294
x2 = 0.4344	–	4.788	–	–
x2 = 0.5	3.756	–	2.839	2.232
x2 = 0.5614	–	5.863	–	–
x2 = 0.6	3.445	–	2.644	2.106
x2 = 0.6809	–	6.538	–	–
x2 = 0.7	3.055	–	2.397	1.938
x2 = 0.8	2.664	–	2.134	1.746
x2 = 0.8473	–	6.37	–	–
x2 = 0.9	2.313	–	1.886	1.529

C[C@@H]1CC[C@@H]2C[C@H]1C2(C)C + C[C@H]1CC[C@@H]2C[C@H]1C2(C)C
100 kPa, x2 = 0.9048
Settings	viscosity [mPa·s]
293.15 K	2.24
298.15 K	2.023
303.15 K	1.838
308.15 K	1.679
313.15 K	1.538
318.15 K	1.415
323.15 K	1.308

CCCBr + Cc1cc(C)cc(C)c1
308.15 K, 101 kPa
Settings	viscosity [mPa·s]
x2 = 0.0819	0.4452
x2 = 0.1828	0.4586
x2 = 0.298	0.4744
x2 = 0.4146	0.4872
x2 = 0.5062	0.4995
x2 = 0.5971	0.5145
x2 = 0.7035	0.5257
x2 = 0.8027	0.541
x2 = 0.8945	0.5538

CCCBr + Cc1ccc(C)cc1
308.15 K, 101 kPa
Settings	viscosity [mPa·s]
x2 = 0.1032	0.4446
x2 = 0.2012	0.4528
x2 = 0.3051	0.4596
x2 = 0.4051	0.469
x2 = 0.503	0.477
x2 = 0.6038	0.4865
x2 = 0.7055	0.4971
x2 = 0.8019	0.5027
x2 = 0.8965	0.5124

Nc1ccccc1 + Cc1cccc(C)c1
303 K, 101.33 kPa
Settings	viscosity [mPa·s]
x1 = 0.1	0.815
x1 = 0.2	1.025
x1 = 0.3	1.316
x1 = 0.4	1.708
x1 = 0.5	2.076
x1 = 0.6	2.225
x1 = 0.7	2.432
x1 = 0.8	2.675
x1 = 0.9	2.875

CCCC[n+]1ccn(C)c1.[Cl][Al-]([Cl])([Cl])[Cl] + Cc1ccccc1
101 kPa, x2 = 0.37
Settings	viscosity [mPa·s]
293.15 K	18.2
298.15 K	16.6
303.15 K	14.6
308.15 K	13.1
313.15 K	11.6
318.15 K	10.5
323.15 K	9.6

Source: the CheMixHub viscosity set
